# Read-outs that look alike come from different tables or passages of the source.
# Tests used:
# Type in all cases: in vivo, Danio rerio
# [1] = Twenty-four-hour acute toxicity test (lethality and abnormalities, 4 to 5 dpf); set-up: Embryos with spasms: dose or concentration left out as unconfirmed; conditions: zebrafish (Danio rerio), in vivo, other: immersion in test solution; 24 h exposure, 4 to 5 dpf, TAPS buffer pH 8.6; read-out: LC50 (CI95)
# Protocol: (§1) Experiments were conducted to assess lethality after 24 h exposure and quantify drug-induced effects on heart rate after 2 h exposure. Experiments were performed on day 4 of zebrafish development (4 dpf). On the day of the experiment, eleutheroembryos (hereafter embryos) were distributed into a 6-well plate (Thermo-Fisher Scientific, Madrid, Spain) by adding 12 embryos into each well with 5 mL of test solution. Embryos were exposed by immersion at 20 min intervals so that they could be mounted individually by ensuring equal exposure times in all groups. Each drug was tested at different concentrations (ranging from 1 to 1000 µM) in parallel with a control group (Goods buffer TAPS alone). The concentration range used was based on previous experiments with MDMA [58].
# (§2) Embryos at 4 dpf were distributed to 6-well plates, and 10 embryos were placed into each well with 5 mL of drug test solution. Plates were incubated at 26 ± 1 °C under a 14:10 light:dark cycle for 24 h. Following 24 h exposure, endpoints used for assessing lethality (coagulation or lack of heartbeat) and morphological/functional abnormalities were recorded for each treatment group. Each drug was tested at different concentrations, and at least three independent experiments were performed.
# (§3) Concentration–response curves were derived from 2 h exposures and the 24 h acute toxicity test as effective concentrations 50 (EC50) and lethal concentrations 50 (LC50), respectively. Concentration–response curves were obtained with a sigmoidal concentration–response equation (Hill equation) using the package drc in R software (v.R-3.6.1).
# zebrafish embryos [2] = assay: as above; set-up: Embryos with spasms: dose or concentration left out as unconfirmed; conditions: 24 h exposure between 4 and 5 dpf; for Drug-induced abnormalities: all tested concentrations
# Protocol: as §1, §2, §3
# zebrafish embryos [3] = assay: Chamber-specific heart rate (atrium, ventricle) after 2 h exposure, video recording; conditions: for EC50: Danio rerio, 4 dpf; for Lowest concentration inducing ventricular bradycardia (LOAEC): significant decrease in ventricular heart rate
# Protocol: as §1
# (§4) To avoid the movement of zebrafish embryos during recording, embryos were anesthetized by adding tricaine to exposure medium (0.08 mg/mL) and mounted in 3% methylcellulose (without tricaine) on double depression slides (Paul Marienfeld GmbH & Co. KG, Lauda-Königshofen, Germany) after drug exposure time. […] The slide was then transferred to an inverted light microscope (Nikon eclipse TS100, at 400×/N.A. 0.55, Nikon Instruments Inc., Amsterdam, The Netherlands) fitted with a high-speed video camera (Exilim, CASIO, Shibuya City, Japan). Sequential images of the heart (240 frames per second (fps)) were obtained with the embryo positioned on its side from the lateral position and with a duration of 10 s. Embryos were recorded one at a time, and all experiments were consistently conducted at the same time of day, controlling room temperature variation throughout video recordings.
# To quantify atrial and ventricular heart rates in zebrafish, video recordings were analyzed with ImageJ v.1.53t. A plot of dynamic pixels was obtained by selecting an area of the heart ventricle or atrium with a high deviation of pixel intensity by means of the z-projection function (see Figure S4 for representative selection of heart ventricle and atrium area). The frequency as frames/beat was obtained by analyzing the waveform of dynamic pixels by the Fast Fourier Transform algorithm (FFT) using the “spectrum” function in R. Then, the resulting periodogram provides frequency information in cycles per frame, so to calculate the heart rate frequency (beats/min, bpm), the frequency values were multiplied by the frame rate (240 fps) to convert cycles per frame to cycles per second (Hz) and then multiplied by 60 to convert from Hz to bpm.
# as §3
# (§5) Statistical analyses were conducted using GraphPad Prism 9 software. For all endpoints reported as means of mean values, data were considered to have a normal distribution according to the central limit theorem (by which means of random samples from any distribution will themselves have a normal distribution). Statistical comparison was performed by two-way ANOVA, followed by Tukey’s test, which was conducted to assess the effect of concentration and chamber (atrium–ventricle) on heart frequency or AI. Fisher’s Exact test was used for the statistical analysis of the proportion of embryos showing AV block and ventricular fibrillation. Students t-test was used to analyze the ventricular beat rate of zebrafish embryos exposed to the Cm.
# zebrafish embryos [4] = assay: AV block 2:1 and ventricular fibrillation after 2 h exposure
# Protocol: as §1, §4, §5
# zebrafish embryos [5] = assay: Arrhythmicity index (AI, heart rate variability) after 2 h exposure; conditions: 500 µM
# Protocol: as §1
# To avoid the movement of zebrafish embryos during recording, embryos were anesthetized by adding tricaine to exposure medium (0.08 mg/mL) and mounted in 3% methylcellulose (without tricaine) on double depression slides (Paul Marienfeld GmbH & Co. KG, Lauda-Königshofen, Germany) after drug exposure time. […] Embryos were recorded one at a time, and all experiments were consistently conducted at the same time of day, controlling room temperature variation throughout video recordings.
# Heartbeat variability was determined by analysis of the interbeat intervals (heart period) (see Figure 7), similar to the analysis described in [61]. […]
# zebrafish embryos [6] = assay: Tachycardic effects: beat rate after 10 min exposure at 10 µM, and ventricular beat rate at Cm after 2 h
# [7] = atrial bradycardia, read-out: EC50 (CI95) ATRIUM heart rate
# [8] = ventricular bradycardia, read-out: EC50 (CI95) VENTRICLE heart rate
structure (smiles),measurement,setting,value
"COC(=O)[C@H]1[C@@H](OC(=O)c2ccccc2)C[C@@H]2CC[C@H]1N2C [Cocaine, cocaine]",LC50 at 24 h,[1],173 µM
same,Drug-induced abnormalities,zebrafish embryos [2],No abnormalities observed
same,EC50,zebrafish embryos [3]; [7],> 500 µM
same,EC50,zebrafish embryos [3]; [8],97.2 µM
same,Lowest concentration inducing ventricular bradycardia (LOAEC),zebrafish embryos [3],50 µM
same,Lowest concentration provoking AV block,zebrafish embryos [4],50 µM
same,Embryos with ventricular fibrillation,zebrafish embryos [4]; 500 µM,all embryos
same,Ventricle heartbeat,zebrafish embryos [5],no ventricle heartbeat
same,Beat rate after shorter exposure time,zebrafish embryos [6],significantly increased beat rates
"CNC(C)Cc1ccc2c(c1)OCO2 (stereo not shown) [MDMA, 3,4-methylenedioxy-methamphetamine]",LC50 at 24 h,[1],180 µM
same,EC50,zebrafish embryos [3]; [7],500 µM
same,EC50,zebrafish embryos [3]; [8],418 µM
same,Lowest concentration inducing ventricular bradycardia (LOAEC),zebrafish embryos [3],250 µM
same,Lowest concentration provoking AV block,zebrafish embryos [4],500 µM
"CCCC(C(=O)c1ccc2c(c1)OCO2)N1CCCC1 (stereo not shown) [MDPV, 3,4-methylenedioxy-pyrovalerone]",LC50 at 24 h,[1],135 µM
same,Embryos with spasms,zebrafish embryos [2],21%
same,Fold more potent in inducing bradycardia in the ventricle than in the atria (EC50),zebrafish embryos [3],3.4 fold
same,EC50,zebrafish embryos [3]; [7],110 µM
same,EC50,zebrafish embryos [3]; [8],32.7 µM
same,Lowest concentration inducing ventricular bradycardia (LOAEC),zebrafish embryos [3],20 µM
same,Lowest concentration provoking AV block,zebrafish embryos [4],20 µM
same,Embryos with ventricular fibrillation (AV ratio > 2.5),zebrafish embryos [4]; 50 µM,more than half of the embryos tested
"CNC(C)C(=O)c1ccc(C)cc1 (stereo not shown) [Mephedrone, mephedrone]",LC50 at 24 h,[1],147 µM
same,Drug-induced abnormalities,zebrafish embryos [2],No abnormalities observed
same,EC50,zebrafish embryos [3]; [7],601 µM
same,EC50,zebrafish embryos [3]; [8],403 µM
same,Lowest concentration inducing ventricular bradycardia (LOAEC),zebrafish embryos [3],250 µM
same,Lowest concentration provoking AV block,zebrafish embryos [4],500 µM
"CNC(C)C(=O)c1ccc2c(c1)OCO2 (stereo not shown) [Methylone, methylone]",LC50 at 24 h,[1],127 µM
same,Drug-induced abnormalities,zebrafish embryos [2],No abnormalities observed
same,EC50,zebrafish embryos [3]; [7],> 1000 µM
same,EC50,zebrafish embryos [3]; [8],522 µM
same,Lowest concentration inducing ventricular bradycardia (LOAEC),zebrafish embryos [3],250 µM
same,Lowest concentration provoking AV block,zebrafish embryos [4],250 µM
